Consider 14 compounds from US20250100996A1, “HETEROCYCLOALKYL AND HETEROARYL COMPOUNDS AND PHARMACEUTICAL COMPOSITIONS THAT MODULATE IKZF2” (Plexium, Inc., priority 2021, published 2025).

As usually defined, the pEC50 is −log10 of the EC50, conventionally taken in molar units. For orientation: inhibition means the relative decrease from the control value, in per cent. A high value points to a strong effect. The term DC50 denotes the concentration giving 50% degradation. Low readings indicate a more potent degrader, high ones a less potent degrader.

Assay [1] addresses T1, human E3 ligase component cereblon (CRBN) (Homo sapiens, UniProt Q96SW2).
T1 construct: host or cells: HEK293T
Description: Cereblon (CRBN) target engagement, NanoBRET TE Intracellular E3 Ligase Assay in transfected HEK-293T cells. The following applies: read-out: CRBN Binding EC50. Here is the method:
HEK293T cells were harvested ca. 75% confluent with trypsin and plated (500,000 cells/well) in a 6-well tissue culture plate in 2 mL of Dulbecco's Modified Eagle Medium (DMEM)^+10% Fetal Bovine Serum (FBS) and incubated overnight at 37° C.
The NanoLuc-CRBN fusion vector (Nluc-CRBN; Promega) contains the coding region of human E3 ligase component cereblon (CRBN) fused to the C-terminus of the NanoLuc luciferase coding region. A mixture of 10 ng Nluc-CRBN and 990 ng DDB1 Expression Vector (Promega) was added to 125 μL Opti-Minimum Essential Medium (Opti-MEM™; Thermo Fisher) along with […] P3000 reagent (Thermo Fisher) in a 1.5 mL epppendorf tube. This solution was added to Lipofectamine 3000 transfection reagent (5 μL; Thermo Fisher) in Opti-MEM (125 μL), mixed well, and incubated for 15 minutes at room temperature. The transfection mixture was added dropwise to cells and incubated overnight at 37° C., 5% CO2. Following transfection, cells were washed once with PBS, and trypsin (250 μL) was added and incubated 30-45 see to dislodge cells. Complete media (2 mL) was added to resuspend cells to form a single cell suspension. Cells were centrifuged at 320×g for 5 min at room temperature, the supernatant was removed, and the cell pellet resuspended in Opti-MEM (3 mL; wash step repeated ×2). After final resuspension in 5 mL Opti-MEM, cells were counted and resuspended at 200,000 cells/mL in Opti-MEM.
Cereblon target engagement was monitored by Bioluminescence Resonance Energy Transfer (BRET) in transfected HEK-293T cells using the NanoBRET TE Intracellular E3 Ligase Assay (Promega). Briefly, 384-well plates (white opaque plates, Corning 3574, low binding surface) were seeded with transfected HEK-293T cells (38 μL/well). 2 μL of 10 μM CRBN tracer (diluted 1:5 in Tracer Dilution Buffer) was added to each well. Plates were centrifuged at 320×g for 1 min at room temperature. Test compounds were added in a 11-point dilution series (typically 10 μM to 100 pM) using a TECAN D300e Digital Dispenser. Plates were shaken for 2 minutes on a microplate shaker to mix compounds. Plates were centrifuged at 320×g for 1 min at room temperature, and subsequently incubated for 2 hours at 37° C.
After incubation, plates were allowed to cool to room temperature for 15 minutes. 20 μL of 3× Complete NanoBRET™ Nano-Glo® Substrate plus Inhibitor Solution (Promega, 1:166 Substrate and 1:500 dilution of Extracellular NanoLuc® Inhibitor diluted in Opti-MEM) were added to each well. Plates were incubated with shaking at room temperature for 3 minutes covered with foil. Plates were read on a CLARIOstar microplate reader (BMG LabTech), measuring at 450 nm (donor emission) and 610 nm (acceptor emission). The IC50 values were determined by regression to best fit four-parameter logistic curves using GraphPad Prism.

The target of assay [2] is T2, IKZF2 (Helios) (Homo sapiens, UniProt Q96SW2+Q9UKS7).
T2 construct: Leu-Asp junction (codons ctcgac before the linker); mScarlet (behind P2A) (C, cleaved yes); expressed in transfected cells
Description: IKZF2 reporter degradation assay (HEK 293T IKZF2-mNeonGreen reporter cell line). The following applies: @ 1 μM, HEK 293T IKZF2-mNeonGreen reporter, 24 hours incubation; for inhibition at 1 µM: HEK-293T, 24 h. Type of assay: cell-based. The source says: (§1) Polycistronic plasmids were constructed for the mammalian expression of fluorescent reporter fusions of human transcription factors IKZF1 (Ikaros), IKZF2 (Helios), and IKZF3 (Aiolos). The respective protein sequences had their C-terminal end joined to a GGGGS linker repeated three times followed by mNeonGreen, P2A sequence, and mScarlet. The DNA sequences of the open reading frames are as follows:
(§2) IKZF1, IKZF2, and IKZF3 constructs were cloned into the UCOE Hygromycin expression vectors (Millipore Sigma). Reporter constructs were transfected using cationic lipid reagents into adherent HEK 293T cells and stable integrants were selected by treatment with 200 μg/mL hygromycin B. Clonal populations were obtained from the population of stable integrants either by limiting dilution or fluorescence activated cell sorting.
(§3) The clonal stable cell lines were maintained under constant 200 μg/mL hygromycin B selection while being passaged for use in the degradation assays. […] The fluorescence intensity of the IKZF1/2/3-mNeonGreen (FITC channel) and mScarlet (PE channel) reporters were routinely analyzed by flow cytometry to confirm consistent expression levels between experiments.
(§4) The IKZF1/IKZF2/IKZF3 degradation assays were carried out by harvesting the HEK 293T reporter cell lines and resuspending the cells in media formulated for reduced background fluorescence (FluoroBrite; Thermo Fisher). The respective cell lines were seeded at a density of 4000 cells/well into black-walled 384-well optical grade assay tissue culture plates. The cells were incubated overnight at 37° C. to allow for attachment to the assay plate. Dilutions of the compounds were prepared in DMSO from 10 mM compound stocks. The assay plates were treated with appropriate concentrations of the compounds by dispensing the DMSO dilutions in quadruplicate wells with an upper limit of 0.5% final DMSO.
(§5) After 24 hours incubation with the compounds, the assay plates were imaged on an ImageXpress Pico microscopy system (cells maintained at 37° C. during imaging) to obtain the fluorescent readouts. The assay plates were imaged in the FITC and Tetramethylrhodamine (TRITC) channels to obtain the mNeonGreen fluorescence intensity (reporter degradation data) and mScarlet fluorescence intensity (for cell segmentation). 293T-IKZF1 and 293T-IKZF3 reporter cell lines were imaged with exposures of 500 milliseconds (ms) for both FITC and TRITC channels, while the 293T-IKZF2 reporter cell line was imaged with exposures of 1000 ms for FITC and 1250 ms for TRITC. The resulting data was analyzed with Cell Reporter Xpress software using the 2-channel cell scoring analysis with a “percent positive” readout. The TRITC channel was selected for the “nuclei” segmentation with a threshold of 20 while the FITC channel was selected for the “Marker 1” segmentation and a threshold of 100 for the IKZF1 and IKZF3 reporter lines. […] The minimum segmentation width was set to 6 micrometers and the maximum segmentation width was set to 15 micrometers for all cell lines. The DC50 calculations were determined by regression to best fit four-parameter logistic curves using GraphPad Prism.

Assay [3] concerns the target T3, IKZF2 (Helios) (Homo sapiens, UniProt Q9UKS7).
T3 construct: Leu-Asp junction (codons ctcgac before the linker); mScarlet (behind P2A) (C, cleaved yes); expressed in transfected cells
The assay is described as above. Type of assay: cell-based. The following applies: HEK 293T IKZF2-mNeonGreen reporter, 24 hours incubation.
Excerpt: as §1, §2, §3, §4, §5

For assay [4], the target named is T4, IKZF3 (Aiolos) (Homo sapiens, UniProt Q9UKT9).
T4 construct: Leu-Asp junction (codons ctcgac before the linker); mScarlet (behind P2A) (C, cleaved yes); expressed in transfected cells
Description: IKZF3 reporter degradation assay (HEK 293T IKZF3-mNeonGreen reporter cell line). Type of assay: cell-based. The following applies: HEK 293T IKZF3-mNeonGreen reporter, 24 hours incubation.
Excerpt: as §1, §2, §3, §4, §5

pEC50: −log10 of the molar value.

T1 sequence (Q96SW2 whole entry): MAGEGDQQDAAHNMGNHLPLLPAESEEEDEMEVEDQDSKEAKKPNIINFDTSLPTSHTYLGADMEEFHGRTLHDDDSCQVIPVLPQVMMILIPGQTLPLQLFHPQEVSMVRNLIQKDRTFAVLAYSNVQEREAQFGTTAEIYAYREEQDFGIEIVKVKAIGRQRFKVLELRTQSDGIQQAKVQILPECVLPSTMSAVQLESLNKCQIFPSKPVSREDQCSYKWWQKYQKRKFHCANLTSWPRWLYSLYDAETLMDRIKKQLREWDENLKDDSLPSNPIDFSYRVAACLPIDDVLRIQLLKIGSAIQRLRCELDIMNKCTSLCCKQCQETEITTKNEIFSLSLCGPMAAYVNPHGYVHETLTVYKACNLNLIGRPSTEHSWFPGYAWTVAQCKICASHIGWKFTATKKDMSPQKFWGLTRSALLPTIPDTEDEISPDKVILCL
T1 sequence (Q16531 whole entry partner): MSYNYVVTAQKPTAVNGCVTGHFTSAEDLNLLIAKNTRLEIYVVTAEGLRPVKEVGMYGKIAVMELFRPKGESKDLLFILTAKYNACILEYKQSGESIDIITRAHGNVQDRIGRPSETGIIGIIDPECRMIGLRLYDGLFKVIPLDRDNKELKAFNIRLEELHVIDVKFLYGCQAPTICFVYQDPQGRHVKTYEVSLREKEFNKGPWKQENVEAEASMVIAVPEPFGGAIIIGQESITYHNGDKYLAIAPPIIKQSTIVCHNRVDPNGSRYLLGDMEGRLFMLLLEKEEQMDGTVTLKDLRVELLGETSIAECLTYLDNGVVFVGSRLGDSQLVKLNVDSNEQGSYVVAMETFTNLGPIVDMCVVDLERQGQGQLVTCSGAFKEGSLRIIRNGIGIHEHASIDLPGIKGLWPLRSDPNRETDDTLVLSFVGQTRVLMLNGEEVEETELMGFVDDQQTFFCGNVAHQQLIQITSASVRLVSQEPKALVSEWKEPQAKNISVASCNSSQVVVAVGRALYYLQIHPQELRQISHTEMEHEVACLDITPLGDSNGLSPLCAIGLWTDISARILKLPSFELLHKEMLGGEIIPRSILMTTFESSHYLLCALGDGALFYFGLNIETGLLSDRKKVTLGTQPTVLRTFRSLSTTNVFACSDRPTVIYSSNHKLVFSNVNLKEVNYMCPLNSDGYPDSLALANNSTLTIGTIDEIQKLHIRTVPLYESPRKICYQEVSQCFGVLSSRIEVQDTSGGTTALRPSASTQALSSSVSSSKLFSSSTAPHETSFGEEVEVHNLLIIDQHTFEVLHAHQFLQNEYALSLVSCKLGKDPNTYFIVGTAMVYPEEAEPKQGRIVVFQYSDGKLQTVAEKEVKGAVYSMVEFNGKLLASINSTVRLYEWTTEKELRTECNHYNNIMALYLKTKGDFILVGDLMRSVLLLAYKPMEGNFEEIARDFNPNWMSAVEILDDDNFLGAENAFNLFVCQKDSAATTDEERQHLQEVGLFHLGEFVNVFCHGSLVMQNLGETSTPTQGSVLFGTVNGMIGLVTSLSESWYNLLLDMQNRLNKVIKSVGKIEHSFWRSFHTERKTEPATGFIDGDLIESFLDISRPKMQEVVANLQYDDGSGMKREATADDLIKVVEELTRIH
T4 sequence (Q96SW2 whole entry partner): as the sequence (Q96SW2 whole entry) above
T4 sequence (Q16531 whole entry partner): as the sequence (Q16531 whole entry partner) above
T4 sequence (Q9UKT9 whole entry): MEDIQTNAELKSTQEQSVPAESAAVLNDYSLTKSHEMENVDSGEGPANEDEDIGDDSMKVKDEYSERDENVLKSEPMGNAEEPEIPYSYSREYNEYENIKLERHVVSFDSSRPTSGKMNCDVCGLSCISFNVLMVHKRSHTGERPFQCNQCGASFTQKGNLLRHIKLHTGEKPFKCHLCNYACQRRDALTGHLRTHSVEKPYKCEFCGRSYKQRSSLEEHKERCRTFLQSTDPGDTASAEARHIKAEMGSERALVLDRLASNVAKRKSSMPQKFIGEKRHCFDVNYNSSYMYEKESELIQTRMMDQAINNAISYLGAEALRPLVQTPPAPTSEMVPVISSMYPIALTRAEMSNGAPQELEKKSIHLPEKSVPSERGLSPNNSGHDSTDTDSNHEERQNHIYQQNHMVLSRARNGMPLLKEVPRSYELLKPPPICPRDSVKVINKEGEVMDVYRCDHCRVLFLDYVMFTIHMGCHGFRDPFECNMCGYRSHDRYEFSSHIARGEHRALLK
T3 sequence (Q9UKS7 whole entry): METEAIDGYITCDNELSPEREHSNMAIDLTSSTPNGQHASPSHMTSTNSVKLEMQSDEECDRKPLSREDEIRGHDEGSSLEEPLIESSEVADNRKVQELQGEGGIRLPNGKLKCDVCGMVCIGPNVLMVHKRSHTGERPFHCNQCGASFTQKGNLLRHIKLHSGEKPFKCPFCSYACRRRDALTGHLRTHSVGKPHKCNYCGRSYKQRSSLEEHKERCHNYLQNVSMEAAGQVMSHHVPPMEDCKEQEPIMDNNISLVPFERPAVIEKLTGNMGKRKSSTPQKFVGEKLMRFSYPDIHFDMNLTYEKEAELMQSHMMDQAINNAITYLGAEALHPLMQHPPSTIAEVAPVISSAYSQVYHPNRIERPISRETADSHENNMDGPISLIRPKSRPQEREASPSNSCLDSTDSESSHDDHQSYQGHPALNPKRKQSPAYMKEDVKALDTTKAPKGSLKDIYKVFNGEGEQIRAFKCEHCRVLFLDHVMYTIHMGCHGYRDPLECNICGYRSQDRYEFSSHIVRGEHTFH
T3 sequence (Q96SW2 whole entry, further chain): as the sequence (Q96SW2 whole entry) above
T3 sequence (Q16531 whole entry partner): as the sequence (Q16531 whole entry partner) above
T2 sequence (Q9UKS7 whole entry): as the sequence (Q9UKS7 whole entry) above
T2 sequence (Q96SW2 whole entry): as the sequence (Q96SW2 whole entry) above
T2 sequence (Q16531 whole entry partner): as the sequence (Q16531 whole entry partner) above

On to `O=C1CCC(N2Cc3cc(O[C@H]4CCCC[C@@H]4N4CC(c5ncc(Br)cn5)C4)ccc3C2=O)C(=O)N1` (mixture of isomers) [Compound 137-B, Rac-3-(5-(((trans)-2-(3-(5-bromopyrimidin-2-yl)azetidin-1-yl)cyclohexyl)oxy)-1-oxoisoindolin-2-yl)piperidine-2,6-dione], for which, in assay [1], the pEC50 was 7.42. 1 µM produced 59.3% inhibition in assay [2]. Also, the DC50 in assay [3] is 49 nM; in assay [4], greater than 30000 nM.

`CN(C)C(=O)C1CCN(c2ccc(CN3CCC(O)(c4ccc5c(c4)CN(C4CCC(=O)NC4=O)C5=O)CC3)cc2)CC1` (stereo not shown) [Compound 41-A, 1-(4-((4-(2-(2,6-dioxopiperidin-3-yl)-1-oxoisoindolin-5-yl)-4-hydroxypiperidin-1-yl)methyl)phenyl)-N,N-dimethylpiperidine-4-carboxamide]: the pEC50 in assay [1] is 6.21. For the same compound, the inhibition at 1 µM in assay [2] worked out at 37.4%; in assay [4] (HEK-293T, 24 h, @ 1 μM) it was 18.1%. In addition, the DC50 in assay [3] came out at 482 nM; in assay [4], 456 nM.

Regarding `O=C1CCC(N2Cc3cc(O[C@H]4CCCC[C@@H]4N4CC(c5ncc(Br)cn5)C4)ccc3C2=O)C(=O)N1` (single isomer, unassigned) [Compound 108-B], the pEC50 in assay [1] is 8.22. In assay [2], this compound gave an inhibition at 1 µM of 74.6%. The figures for the DC50 in assay [3] and in assay [4] were 6 nM and greater than 30000 nM, respectively.

For `CC(=O)N1CCC(C2CN([C@H]3CCCC[C@@H]3Oc3ccc4c(c3)CN(C3CCC(=O)NC3=O)C4=O)C2)CC1` (stereo partly drawn) [Compound 12-A, 3-(5-(((1S,2S)-2-(3-(1-acetylpiperidin-4-yl)azetidin-1-yl)cyclohexyl)oxy)-1-oxoisoindolin-2-yl)piperidine-2,6-dione], the pEC50 in assay [1] was 7.28. The compound further yielded an inhibition at 1 µM in assay [2] of 83.1%. Moreover, the values for the DC50 in assay [3] and in assay [4] were 12 nM and greater than 30000 nM, respectively.

For `O=C1CCC(N2Cc3cc(OC4CCCCC4N4CC(c5cccnn5)C4)ccc3C2=O)C(=O)N1` (stereo not shown) [Compound 142-B, 3-(1-oxo-5-((2-(3-(pyridazin-3-yl)azetidin-1-yl)cyclohexyl)oxy)isoindolin-2-yl)piperidine-2,6-dione], in assay [1], the pEC50 is 6.78. Besides, at 1 µM the inhibition in assay [2] was 31.5%. In addition, the figures for the DC50 in assay [3] and in assay [4] were 605 nM and greater than 30000 nM, respectively.

`O=C1CCC(N2Cc3cc(O[C@@H]4CCCC[C@@H]4N4CC(c5cc(Cl)ccn5)C4)ccc3C2=O)C(=O)N1` (mixture of isomers) [Compound 165-B, Rac-3-(5-(((cis)-2-(3-(4-chloropyridin-2-yl)azetidin-1-yl)cyclohexyl)oxy)-1-oxoisoindolin-2-yl)piperidine-2,6-dione]: the pEC50 in assay [1] was 7.89. In assay [2], testing at 1 µM gave an inhibition of 58.6%. The DC50 is 9 nM in assay [3] and greater than 30000 nM in assay [4].

Take `O=C1CCC(N2Cc3cc(O[C@H]4CCCC[C@@H]4N4CC(c5ccc(Cl)cn5)C4)ccc3C2=O)C(=O)N1` (single isomer, unassigned) [Compound 100-B]: the pEC50 in assay [1] is 7.70. Further, the “IKZF2 % Degradation @ 1 μM” value in assay [2] turned out to be 80.5%. Moreover, the DC50 in assay [3] is 5 nM; in assay [4], greater than 30000 nM.

For `O=C1CCC(N2Cc3cc(O[C@H]4CCCC[C@H]4N4CC(c5ccc(Cl)cn5)C4)ccc3C2=O)C(=O)N1` (single isomer, unassigned) [Compound 98-B], the pEC50 in assay [1] is 7.26. Further, in assay [2], at 1 µM the inhibition was 41.3%. In addition, the DC50 in assay [3] amounted to 111 nM.

On to `O=C1CCC(N2Cc3cc(O[C@H]4CCCC[C@@H]4N4CC(c5ccc(C(F)(F)F)cn5)C4)ccc3C2=O)C(=O)N1` (single isomer, unassigned) [Compound 131-B], for which the negative-log EC50 (pEC50) in assay [1] is 7.68. Besides, the “IKZF2 % Degradation @ 1 μM” value in assay [2] turned out to be 94.1%. Further, the DC50 in assay [3] came to 5 nM; in assay [4], 41.4 nM. Besides, the “IKZF3 % Degradation @ 1 μM” value in assay [4] (@ 1 μM) is 34.3%.

In the case of `O=C1CCC(N2Cc3cc(O[C@H]4CCCC[C@@H]4N4CC(c5ccncc5Cl)C4)ccc3C2=O)C(=O)N1` (single isomer, unassigned) [Compound 95-B], the pEC50 in assay [1] was 7.52. The same compound had an inhibition at 1 µM in assay [2] of 77.8%. Also, the DC50 in assay [3] was 23 nM; in assay [4] it was greater than 30000 nM.

With `O=C1CCC(N2Cc3cc(O[C@H]4CCCC[C@@H]4N4CC(c5ncc(C6CC6)cn5)C4)ccc3C2=O)C(=O)N1` (single isomer, unassigned) [Compound 135-B], in assay [1], the pEC50 was 8.52. Further, the “IKZF2 % Degradation @ 1 μM” value in assay [2] worked out at 77.7%. Besides, the DC50 is 13 nM in assay [3] and greater than 30000 nM in assay [4].

In the case of `O=C1CCC(N2Cc3cc(O[C@H]4CCCC[C@@H]4N4CC(c5ncncc5Cl)C4)ccc3C2=O)C(=O)N1` (single isomer, unassigned) [Compound 92-B], the pEC50 in assay [1] is 7.92. In assay [2], this compound yielded an inhibition at 1 µM of 81.7%. For the same compound, the results for the 50% degradation concentration (DC50) in assay [3] and in assay [4] were 7 nM and greater than 30000 nM, respectively.

For `O=C1CCC(N2Cc3cc(O[C@H]4CCCC[C@@H]4N4CC(c5ccnc6[nH]ccc56)C4)ccc3C2=O)C(=O)N1` (single isomer, unassigned) [Compound 113-B], in assay [1], the pEC50 was 7.52. This compound showed an inhibition at 1 µM in assay [2] of 29.7%. This compound also had a DC50 in assay [3] of 62 nM.

Take `O=C1CCC(N2Cc3cc(O[C@H]4CCCC[C@H]4N4CC(c5cncc(Cl)c5)C4)ccc3C2=O)C(=O)N1` (single isomer, unassigned) [Compound 115-B]: the pEC50 in assay [1] is 7.19. Further, testing at 1 µM in assay [2] gave an inhibition of 21.7%. Besides, the DC50 in assay [3] was determined as 177 nM.
